Test results reported in a melting point compilation (Tetko et al.; mined from patent text by program, amines drawn as free bases though some values may be those of a salt).

| SMILES | melting point |
| --- | --- |
| Cc1ccc(NC(=O)NN2CCN(CCc3c[nH]c4ccccc34)CC2)cc1 | 201 to 203 °C |
| COc1ccc2c(-c3cnc4[nH]cc(C(=O)N[C@H](C)C(=O)N5CC(C#N)C5)c4n3)nn(C)c2c1 | 220 to 240 °C |
| Nc1nccc(-c2c(-c3ccc(F)cc3)ncn2C2CCNCC2)n1 | 199 to 200 °C |
| c1ccc2c(C3CCNCC3)n[nH]c2c1 | 213 to 215 °C |
| COC(=O)c1cc(C(=O)c2ncc3ccccn23)ccc1N | 192 °C |
| COc1ccc(-n2nc(C(=O)c3ccccc3)cc2-c2ccc(C)cc2)cc1 | 138 to 139 °C |
| CCN(CC)Cc1cc(C(=O)c2ccc(Cl)cc2)cc(C(C)(C)C)c1O | 95 to 96.5 °C |
| CCCc1c2c(nc3cc(F)c(F)cc13)-c1cc3c(c(=O)n1C2)COC(=O)CC3(O)CC (configuration not stated) | 250 °C |
| C=Cc1cc(C)cc(NC(C)=O)n1 | 140 °C |
| c1nnc2cc3c(cc2c1NCC1CCCO1)OCO3 (configuration not stated) | 196 to 198 °C |
| CCOC(=O)c1cnn(-c2ccc(Cl)cc2C(F)(F)F)c1C#N | 70 to 72 °C |
| CCOC(=O)/C(=N\OC(C)(C)C(=O)OC(C)(C)C)c1nc(C(c2ccccc2)(c2ccccc2)c2ccccc2)sc1N | 124 to 125 °C |
| O=C(O)C1(c2ccc(I)cc2)CC1 | 150 to 152 °C |
| CCCn1c(=O)c2c(nn3cc(-c4cccc(OC)c4)[nH]c23)n(Cc2ccccc2)c1=O | 249 to 250 °C |
| O=C(CCC1CC1)N1C(=O)OC[C@@H]1Cc1ccccc1 | 42 to 43 °C |
| O=c1cccnn1-c1ccc2nc([C@H]3C[C@H](N4CCCCC4)C3)sc2c1 | 127 to 128 °C |
| NC1CCN(c2nc3c(cc2F)c(=O)c(C(=O)O)cn3CCF)C1 (configuration not stated) | 251 to 255 °C |
| CCCCCCCCCCCOCc1ccc(C(=O)O)cc1OCCCCCCCCCCC | 61 to 63 °C |
| COc1cc(COc2nn(-c3ccccc3)cc2/C=C/CO)ccc1OCc1nc(-c2ccco2)oc1C | 120 to 121 °C |
| Cc1ccc(Cl)cc1N1C(=O)CN(C)C1=S | 132 to 134 °C |
| CCCc1nc(NN)nc(O)c1Cc1ccc(-c2ccccc2C#N)cc1 | 191 °C |
| OC[C@H]1CC[C@H](c2ccc(F)cc2)CC1 | 65 to 70 °C |
| CCCCc1ccc(OCCN2CCN(c3cc(Cl)nnc3Cl)CC2)cc1 | 83 to 84 °C |
| CCC(CC)(CC(=O)Nc1cccc(OCc2ccc3ccc(OC)cc3n2)c1)C(=O)O | 96 to 97 °C |
| N#CCCN(CCC#N)c1ccccc1C#N | 79 to 82 °C |
| CC1(C)CC1C(=O)NC(=CCCCCCBr)C(=O)O (configuration not stated) | 151 to 153 °C |

| SMILES | melting point |
| --- | --- |
| Nc1nc2ccccc2c2c1ncn2CC1(O)CCCCC1 | > 250 °C |
| CCCc1c(C(=O)C(C)C)c2ccc(C(=O)OC)cc2n1Cc1ccccc1[N+](=O)[O-] | 166 °C |
| Cc1ccc([N+](=O)[O-])c(Oc2cc(C(F)(F)F)nn2C)c1 | 88 to 90 °C |
| COc1ccc(C(=O)Nc2ccc(N3CCC(NC[C@H](O)COc4ccc(O)cc4)CC3)cc2)cc1OC | 77 to 84 °C |
| CN(CCOc1ccc(CC2SC(=O)NC2=O)cc1)c1ncccn1 (configuration not stated) | 150 to 151 °C |
| CC(O)=C(C#N)C(=O)Nc1cc(Br)ccc1Br | 148 to 150 °C |
| FC(F)(F)c1ccccc1CC[C@H]1CN(Cc2ccccc2)CCN1Cc1ccccc1 | 77 to 82 °C |
| COc1ccc(C2SCCCS2)cc1 | 117 to 119 °C |
| CCOc1ccc(-c2nc(-c3cc(CCO)c(O)c(C(=O)OC)c3)cs2)cc1OCC | 113 to 114 °C |
| COc1cnc(C(=O)O)cc1OC1CCCC1 | 184 to 185 °C |
| COc1cc(-c2sc3nc(N)[nH]c(=O)c3c2C)ccc1Cl | 312 to 322 °C |
| COCCOc1ccc(CCNC(=O)OCc2ccccc2)c(Oc2ncc(C(F)(F)F)cc2Cl)c1 | 102 to 103 °C |
| NC1COc2ccccc2NC1=O (configuration not stated) | 65 to 70 °C |
| CCOC(=O)c1c(CSc2nccn2CC)nc2cc(OC)c(OC)cc2c1-c1ccc(OC)c(OC)c1 | 157 to 158 °C |
| N#Cc1cc(=O)n(-c2c(Cl)cc(C(F)(F)F)cc2Cl)[nH]1 | 198 to 201 °C |
| O=C(O)CCCCCC1=CCCC1=O | 70 to 72 °C |
| CCON=C(C(=O)OCC)C1=CSc2ccccc2S1 | 78 to 81 °C |
| CC(C)C(O)c1ccc(-c2ccc(Cl)cc2)cc1 (configuration not stated) | 71 to 72 °C |
| Cc1nn2c(c1C(N)=O)NCCC2 | 234 to 236 °C |
| Cc1c(CC=CCCC(=O)O)cccc1C(=O)c1ccc(Cl)cc1 | 73 °C |
| CCOC(=O)Nc1cscc1C(=O)OC | 52 °C |
| COc1ccc(-c2csc(Nc3cnccn3)n2)cc1OC | 205 to 207 °C |
| COC(=O)c1cc(CCC(=O)NCc2ccccc2)ccc1O | 139 to 140 °C |
| O=C(O)CCC(CCNCCc1ccccc1)n1nc(Cc2ccc(F)cc2)c2ccccc2c1=O (configuration not stated) | 190 to 191 °C |
| CCNC(=O)NC[C@H]1CN(c2ccc3c(c2)CCCc2cnoc2-3)C(=O)O1 | 193 to 196 °C |
| COc1cc(OC)c(-c2cccs2)cc1/C=C/C(=O)c1ccc(S(=O)(=O)NN2CCCCC2)cc1 | 174 to 176 °C |
